Measured values as given in ChEMBL document CHEMBL1909046, “DrugMatrix in vitro pharmacology data”.
pIC50, pKi: −log10 of the molar value.

Columns and labels:
[1] = DRUGMATRIX: Calcium Channel Type L, Benzothiazepine radioligand binding (ligand: [3H] Diltiazem); format: cell membranes, Rattus norvegicus, Wistar, Brain, Membrane; settings: Not Active = under 50% inhibition at 10 µM
[2] = target: T1, Muscarinic acetylcholine receptor M2 (Homo sapiens, UniProt P08172); format: cell membranes, CHO-K1, Membrane; settings: cho-k1; further: in other assays of this panel Not Active means under 50% inhibition at 10 µM
T1 sequence (P08172 whole entry): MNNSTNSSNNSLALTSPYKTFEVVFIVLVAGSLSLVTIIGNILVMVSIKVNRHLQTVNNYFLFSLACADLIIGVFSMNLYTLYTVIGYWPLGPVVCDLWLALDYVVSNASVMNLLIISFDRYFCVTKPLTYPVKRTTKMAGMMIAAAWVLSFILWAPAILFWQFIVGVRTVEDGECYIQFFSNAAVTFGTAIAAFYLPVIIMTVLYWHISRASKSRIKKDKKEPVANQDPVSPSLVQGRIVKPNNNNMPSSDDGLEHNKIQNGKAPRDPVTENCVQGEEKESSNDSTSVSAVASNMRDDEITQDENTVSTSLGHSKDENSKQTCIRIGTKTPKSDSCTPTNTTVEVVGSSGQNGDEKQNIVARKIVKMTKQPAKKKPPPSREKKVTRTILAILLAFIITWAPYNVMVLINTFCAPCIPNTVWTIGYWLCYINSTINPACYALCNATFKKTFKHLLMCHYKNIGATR

[3] = DRUGMATRIX: GABAA, Muscimol, Central radioligand binding (ligand: [3H] Muscimol); format: cell membranes, Rattus norvegicus, Wistar, Brain, Membrane; settings: Not Active = under 50% inhibition at 10 µM
[4] = DRUGMATRIX: GABAA, Chloride Channel, TBOB radioligand binding (ligand: [3H] TBOB); format: cell membranes, Rattus norvegicus, Wistar, Cerebral cortex, Membrane; settings: Not Active = under 50% inhibition at 10 µM
[5] = target: T2, C-C chemokine receptor type 4 (Homo sapiens, UniProt P51679); format: cell membranes, Membrane; settings: chem-1; further: in other assays of this panel Not Active means under 50% inhibition at 10 µM
T2 sequence (P51679 whole entry): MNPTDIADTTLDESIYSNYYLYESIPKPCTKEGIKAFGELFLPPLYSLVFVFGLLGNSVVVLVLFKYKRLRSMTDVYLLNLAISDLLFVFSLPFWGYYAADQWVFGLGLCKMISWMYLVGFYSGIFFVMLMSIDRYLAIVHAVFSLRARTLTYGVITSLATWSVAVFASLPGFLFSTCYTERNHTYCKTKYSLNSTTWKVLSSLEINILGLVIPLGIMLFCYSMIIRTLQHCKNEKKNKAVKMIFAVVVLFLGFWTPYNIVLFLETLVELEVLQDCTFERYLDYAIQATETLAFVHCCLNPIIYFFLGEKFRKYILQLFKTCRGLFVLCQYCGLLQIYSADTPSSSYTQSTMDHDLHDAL

Calcitonin receptor = target: T3, Calcitonin receptor (Homo sapiens, UniProt P30988); format: cell membranes, Membrane; settings: t47d; further: in other assays of this panel Not Active means under 50% inhibition at 10 µM
T3 sequence (P30988 whole entry): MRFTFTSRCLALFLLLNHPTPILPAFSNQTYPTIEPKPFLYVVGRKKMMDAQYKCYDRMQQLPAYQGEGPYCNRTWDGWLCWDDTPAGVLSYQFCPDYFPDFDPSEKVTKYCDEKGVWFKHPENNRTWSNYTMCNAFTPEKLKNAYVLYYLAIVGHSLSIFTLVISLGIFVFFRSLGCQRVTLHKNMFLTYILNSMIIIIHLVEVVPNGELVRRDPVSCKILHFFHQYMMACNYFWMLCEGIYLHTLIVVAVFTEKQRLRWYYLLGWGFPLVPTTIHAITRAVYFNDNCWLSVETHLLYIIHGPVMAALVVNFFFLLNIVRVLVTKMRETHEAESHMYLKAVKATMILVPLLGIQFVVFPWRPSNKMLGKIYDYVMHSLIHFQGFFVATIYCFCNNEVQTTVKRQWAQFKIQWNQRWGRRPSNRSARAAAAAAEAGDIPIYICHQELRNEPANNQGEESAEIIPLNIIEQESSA

Vasopressin V1a receptor = Vasopressin V1a receptor (Homo sapiens, UniProt P37288); format: cell membranes, Membrane; settings: hek293; further: in other assays of this panel Not Active means under 50% inhibition at 10 µM
[6] = target: Platelet-activating factor receptor (Homo sapiens, UniProt P25105); format: tissue-based; further: in other assays of this panel Not Active means under 50% inhibition at 10 µM
Platelet-activating factor receptor, sequence (P25105 whole entry): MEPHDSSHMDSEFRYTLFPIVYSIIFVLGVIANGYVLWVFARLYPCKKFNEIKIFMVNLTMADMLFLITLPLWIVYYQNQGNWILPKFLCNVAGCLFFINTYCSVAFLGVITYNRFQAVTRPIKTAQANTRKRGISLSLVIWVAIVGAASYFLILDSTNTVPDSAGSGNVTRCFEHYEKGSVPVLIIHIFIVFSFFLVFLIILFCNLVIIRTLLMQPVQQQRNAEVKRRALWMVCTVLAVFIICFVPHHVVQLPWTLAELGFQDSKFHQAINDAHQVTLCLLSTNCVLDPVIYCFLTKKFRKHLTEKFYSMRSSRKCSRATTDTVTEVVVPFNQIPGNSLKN

Vasopressin V1a receptor, sequence (P37288 whole entry): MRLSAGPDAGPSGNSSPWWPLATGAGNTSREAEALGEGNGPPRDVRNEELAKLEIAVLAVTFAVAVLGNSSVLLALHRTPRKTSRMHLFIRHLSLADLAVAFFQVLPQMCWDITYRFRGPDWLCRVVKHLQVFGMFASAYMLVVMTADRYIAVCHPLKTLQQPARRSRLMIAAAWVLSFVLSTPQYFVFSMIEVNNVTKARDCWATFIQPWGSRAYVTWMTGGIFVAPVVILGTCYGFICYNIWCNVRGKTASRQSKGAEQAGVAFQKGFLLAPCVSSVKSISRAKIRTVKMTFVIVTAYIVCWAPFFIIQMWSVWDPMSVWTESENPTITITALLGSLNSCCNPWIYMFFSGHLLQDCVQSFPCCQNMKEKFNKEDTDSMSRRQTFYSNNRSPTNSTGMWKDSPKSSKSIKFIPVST

Row | Molecule | IC50 [1] | Ki [1] | IC50 [2] | IC50 [3] | Ki [3] | IC50 [4] | Ki [4] | IC50 [5] | IC50 (Calcitonin receptor) | IC50 (Vasopressin V1a receptor) | IC50 [6] | Ki [2] | Ki [5] | Ki (Calcitonin receptor) | Ki (Vasopressin V1a receptor) | Ki [6] | pIC50 ([1]; read-out: IC50) | pKi ([1]; read-out: Ki)
1 | C[C@H]1C[C@@H]2[C@H]([C@@H](O)C[C@@]3(C)[C@H]2CC[C@]3(O)C(=O)CO)[C@@]2(C)C=CC(=O)C=C12 [METHYLPREDNISOLONE] | Not Active | Not Active | Not Active | Not Active | Not Active | Not Active | Not Active | Not Active | Not Active | Not Active | Not Active |  |  |  |  |  |  | 
2 | N#Cc1ccc(C(c2ccc(C#N)cc2)n2cncn2)cc1 [LETROZOLE] | Not Active | Not Active | Not Active | Not Active | Not Active | Not Active | Not Active | Not Active | Not Active | Not Active | Not Active |  |  |  |  |  |  | 
3 | COc1cc2nc(N3CCN(C(=O)C4CCCO4)CC3)nc(N)c2cc1OC (stereo not given) [TERAZOSIN] | Not Active | Not Active | Not Active | Not Active | Not Active | Not Active | Not Active | Not Active | Not Active | Not Active | Not Active |  |  |  |  |  |  | 
4 | O=C(O)c1cn(-c2ccc(F)cc2)c2cc(N3CCNCC3)c(F)cc2c1=O [SARAFLOXACIN] | Not Active | Not Active | Not Active | Not Active | Not Active | Not Active | Not Active | Not Active | Not Active | Not Active | Not Active |  |  |  |  |  |  | 
5 | CO[C@H]1/C=C/O[C@@]2(C)Oc3c(C)c(O)c4c(O)c(c(/C=N/N5CCN(C6CCCC6)CC5)c(O)c4c3C2=O)NC(=O)/C(C)=C\C=C\[C@H](C)[C@H](O)[C@@H](C)[C@@H](O)[C@@H](C)[C@H](OC(C)=O)[C@@H]1C [RIFAPENTINE] | Not Active | Not Active | Not Active | Not Active | Not Active | Not Active | Not Active | Not Active | Not Active | Not Active | Not Active |  |  |  |  |  |  | 
6 | CCCCOc1cc(CC2CNC(=O)N2)ccc1OC (stereo not given) [RO-201724] | Not Active | Not Active | Not Active | Not Active | Not Active | Not Active | Not Active | Not Active | Not Active | Not Active | Not Active |  |  |  |  |  |  | 
7 | CC[C@@H](C(=O)[C@@H](C)[C@@H](O)[C@H](C)[C@@H]1O[C@@H]([C@@H](CC)C(=O)O)CC[C@@H]1C)[C@H]1O[C@]2(C=C[C@@H](O)[C@]3(CC[C@@](C)([C@H]4CC[C@](O)(CC)[C@H](C)O4)O3)O2)[C@H](C)C[C@@H]1C [SALINOMYCIN] | Not Active | Not Active | Not Active | Not Active | Not Active | Not Active | Not Active | Not Active | Not Active | Not Active | Not Active |  |  |  |  |  |  | 
8 | CCCCNc1ccc(C(=O)OCCN(C)C)cc1 [TETRACAINE] | Not Active | Not Active | Not Active | Not Active | Not Active | Not Active | Not Active | Not Active | Not Active | Not Active | Not Active |  |  |  |  |  |  | 
9 | CCN(CC)CCNC(=O)c1cc(S(C)(=O)=O)ccc1OC [TIAPRIDE] | Not Active | Not Active | Not Active | Not Active | Not Active | Not Active | Not Active | Not Active | Not Active | Not Active | Not Active |  |  |  |  |  |  | 
10 | MANGANESE CHLORIDE ANHYDROUS | Not Active | Not Active | Not Active | Not Active | Not Active | Not Active | Not Active | Not Active | Not Active | Not Active | Not Active | Not Active | Not Active | Not Active | Not Active | Not Active |  | 
11 | O.O.O.O.O.O.[Cl-].[Cl-].[Sr+2] [STRONTIUM CHLORIDE HEXAHYDRATE] | Not Active | Not Active | Not Active | Not Active | Not Active | Not Active | Not Active | Not Active | Not Active | Not Active | Not Active |  |  |  |  |  |  | 
12 | CNC1(c2ccccc2Cl)CCCCC1=O (stereo not given) [KETAMINE] | Not Active | Not Active | Not Active | Not Active | Not Active | Not Active | Not Active | Not Active | Not Active | Not Active | Not Active |  |  |  |  |  |  | 
13 | CCN(CC)CC(=O)Nc1c(C)cccc1C [LIDOCAINE] | Not Active | Not Active | Not Active | Not Active | Not Active | Not Active | Not Active | Not Active | Not Active | Not Active | Not Active |  |  |  |  |  |  | 
14 | Nc1cc(N2CCCCC2)nc(N)[n+]1[O-] [MINOXIDIL] | Not Active | Not Active | Not Active | Not Active | Not Active | Not Active | Not Active | Not Active | Not Active | Not Active | Not Active |  |  |  |  |  |  | 
15 | COc1c2occc2cc2ccc(=O)oc12 [METHOXSALEN] | Not Active | Not Active | Not Active | Not Active | Not Active | Not Active | Not Active | Not Active | Not Active | Not Active | Not Active |  |  |  |  |  |  | 
16 | Cc1c(C)c2c(c(C)c1O)CCC(C)(CN1CCN(c3cc(N4CCCC4)nc(N4CCCC4)n3)CC1)O2 (stereo not given) |  |  | Not Active | Not Active | Not Active | Not Active | Not Active | Not Active | Not Active | Not Active | Not Active |  |  |  |  |  | 5.78 | 5.83
17 | CS(=O)(=O)c1ccc([C@@H](O)[C@@H](CO)NC(=O)C(Cl)Cl)cc1 [THIAMPHENICOL] | Not Active | Not Active | Not Active | Not Active | Not Active | Not Active | Not Active | Not Active | Not Active | Not Active | Not Active |  |  |  |  |  |  | 
18 | Clc1ccccc1CN1CCc2sccc2C1 [TICLOPIDINE] | Not Active | Not Active | Not Active | Not Active | Not Active | Not Active | Not Active | Not Active | Not Active | Not Active | Not Active |  |  |  |  |  |  | 
19 | CC(C)Oc1ccc2c(=O)c(-c3ccccc3)coc2c1 [IPRIFLAVONE] | Not Active | Not Active | Not Active | Not Active | Not Active | Not Active | Not Active | Not Active | Not Active | Not Active | Not Active |  |  |  |  |  |  | 
20 | CCN1CCC[C@H]1CNC(=O)c1cc(S(N)(=O)=O)ccc1OC [LEVOSULPIRIDE] | Not Active | Not Active | Not Active | Not Active | Not Active | Not Active | Not Active | Not Active | Not Active | Not Active | Not Active |  |  |  |  |  |  | 
